Values quoted from earlier work in paper PMC8513935.

Assays:
[1] = log P octanol/water from commercial databases, averaged (the ESI); conditions: Octanol (wet), 25 C
[2] = derived by the authors as gas->solvent minus gas->water (a hypothetical dry solvent; the ESI), not a two-phase measurement
[3] = experimental, compiled by the authors from the literature (the ESI cites the sources)

Question: Which log K of transfer, water to solvent [1] does the source give for `CC(C)CC(C)(C)C` here?
Answer: 4.8 log10 K

Question: And the log K of transfer, water to solvent ([2]; 2-Methylpropan-2-ol, 25 C)?
Answer: 4.76 log10 K

Question: What about the log K of transfer, water to solvent ([2]; Butanone, 25 C) of the same molecule?
Answer: 5.09 log10 K

Question: What about the log K of transfer, water to solvent ([2]; Decan-1-ol, 25 C) of the same molecule?
Answer: 4.98 log10 K

Question: And the log K of transfer, water to solvent ([2]; Hexadecane, 25 C)?
Answer: 5.22 log10 K

Question: What about the log K of transfer, water to solvent ([2]; Hexan-1-ol, 25 C) of the same molecule?
Answer: 5.1 log10 K

Question: What about the log K of transfer, water to solvent ([2]; Pentan-1-ol, 25 C) of the same molecule?
Answer: 4.97 log10 K

Question: And the log K of transfer, water to solvent ([2]; Propan-1-ol, 25 C)?
Answer: 4.81 log10 K

Question: What about the log K of transfer, water to solvent ([2]; Propan-2-ol, 25 C) of the same molecule?
Answer: 4.82 log10 K

Question: What about the log K of transfer, water to solvent ([2]; Tetrahydrofuran, 25 C) of the same molecule?
Answer: 5.53 log10 K

Question: What about the log K of transfer, gas to solvent ([3]; 2-Methylpropan-2-ol, 25 C) of the same molecule?
Answer: 2.64 log10 K

Question: What about the log K of transfer, gas to solvent ([3]; Butanone, 25 C) of the same molecule?
Answer: 2.97 log10 K

Question: And the log K of transfer, gas to solvent ([3]; Decan-1-ol, 25 C)?
Answer: 2.86 log10 K

Question: What about the log K of transfer, gas to solvent ([3]; Hexadecane, 25 C) of the same molecule?
Answer: 3.1 log10 K

Question: And the log K of transfer, gas to solvent ([3]; Hexan-1-ol, 25 C)?
Answer: 2.98 log10 K

Question: What about the log K of transfer, gas to solvent ([3]; Pentan-1-ol, 25 C) of the same molecule?
Answer: 2.85 log10 K

Question: What about the log K of transfer, gas to solvent ([3]; Propan-1-ol, 25 C) of the same molecule?
Answer: 2.69 log10 K

Question: And the log K of transfer, gas to solvent ([3]; Propan-2-ol, 25 C)?
Answer: 2.7 log10 K

Question: What about the log K of transfer, gas to solvent ([3]; Tetrahydrofuran, 25 C) of the same molecule?
Answer: 3.41 log10 K

Question: And the log K of transfer, gas to solvent ([3]; Water, 25 C)?
Answer: -2.12 log10 K

Question: With `CC(C)CCC(C)C` as the molecule, how does the log K of transfer, water to solvent [1] read?
Answer: 4.8 log10 K

Question: What about the log K of transfer, water to solvent ([2]; 1,2-Dichloroethane, 25 C) of the same molecule?
Answer: 5.12 log10 K

Question: And the log K of transfer, water to solvent ([2]; Acetone, 25 C)?
Answer: 4.97 log10 K

Question: And the log K of transfer, water to solvent ([2]; Acetonitrile, 25 C)?
Answer: 4.41 log10 K

Question: And the log K of transfer, water to solvent ([2]; Butanone, 25 C)?
Answer: 5.16 log10 K

Question: What about the log K of transfer, water to solvent ([2]; Butyronitrile, 25 C) of the same molecule?
Answer: 4.94 log10 K

Question: And the log K of transfer, water to solvent ([2]; CCl4, 25 C)?
Answer: 5.68 log10 K

Question: What about the log K of transfer, water to solvent ([2]; Chlorobenzene, 25 C) of the same molecule?
Answer: 5.66 log10 K

Question: What about the log K of transfer, water to solvent ([2]; Chloroform, 25 C) of the same molecule?
Answer: 5.58 log10 K

Question: What about the log K of transfer, water to solvent ([2]; Cyclohexanone, 25 C) of the same molecule?
Answer: 5.08 log10 K

Question: And the log K of transfer, water to solvent ([2]; Dichloromethane, 25 C)?
Answer: 5.42 log10 K

Question: What about the log K of transfer, water to solvent ([2]; Hexadecane, 25 C) of the same molecule?
Answer: 5.33 log10 K

Question: What about the log K of transfer, water to solvent ([2]; Hexane, 25 C) of the same molecule?
Answer: 5.66 log10 K

Question: What about the log K of transfer, water to solvent ([2]; Perfluoroalkane, 25 C) of the same molecule?
Answer: 4.39 log10 K

Question: What about the log K of transfer, water to solvent ([2]; Propan-2-ol, 25 C) of the same molecule?
Answer: 4.89 log10 K

Question: And the log K of transfer, water to solvent ([2]; Propionitrile, 25 C)?
Answer: 4.78 log10 K

Question: And the log K of transfer, water to solvent ([2]; Tetrahydrofuran, 25 C)?
Answer: 5.55 log10 K

Question: And the log K of transfer, water to solvent ([2]; Toluene, 25 C)?
Answer: 5.49 log10 K

Question: What about the log K of transfer, gas to solvent ([3]; 1,2-Dichloroethane, 25 C) of the same molecule?
Answer: 3.1 log10 K

Question: And the log K of transfer, gas to solvent ([3]; Acetonitrile, 25 C)?
Answer: 2.39 log10 K

Question: And the log K of transfer, gas to solvent ([3]; Butanone, 25 C)?
Answer: 3.14 log10 K

Question: What about the log K of transfer, gas to solvent ([3]; Butyronitrile, 25 C) of the same molecule?
Answer: 2.92 log10 K

Question: What about the log K of transfer, gas to solvent ([3]; CCl4, 25 C) of the same molecule?
Answer: 3.66 log10 K

Question: And the log K of transfer, gas to solvent ([3]; Chlorobenzene, 25 C)?
Answer: 3.64 log10 K

Question: What about the log K of transfer, gas to solvent ([3]; Chloroform, 25 C) of the same molecule?
Answer: 3.56 log10 K

Question: What about the log K of transfer, gas to solvent ([3]; Cyclohexanone, 25 C) of the same molecule?
Answer: 3.06 log10 K

Question: What about the log K of transfer, gas to solvent ([3]; Dichloromethane, 25 C) of the same molecule?
Answer: 3.4 log10 K

Question: What about the log K of transfer, gas to solvent ([3]; Hexadecane, 25 C) of the same molecule?
Answer: 3.31 log10 K

Question: What about the log K of transfer, gas to solvent ([3]; Hexane, 25 C) of the same molecule?
Answer: 3.64 log10 K

Question: And the log K of transfer, gas to solvent ([3]; Perfluoroalkane, 25 C)?
Answer: 2.37 log10 K

Question: And the log K of transfer, gas to solvent ([3]; Propan-2-ol, 25 C)?
Answer: 2.87 log10 K

Question: What about the log K of transfer, gas to solvent ([3]; Propanone, 25 C) of the same molecule?
Answer: 2.95 log10 K

Question: What about the log K of transfer, gas to solvent ([3]; Propionitrile, 25 C) of the same molecule?
Answer: 2.76 log10 K

Question: And the log K of transfer, gas to solvent ([3]; Tetrahydrofuran, 25 C)?
Answer: 3.53 log10 K

Question: What about the log K of transfer, gas to solvent ([3]; Toluene, 25 C) of the same molecule?
Answer: 3.47 log10 K

Question: And the log K of transfer, gas to solvent ([3]; Water, 25 C)?
Answer: -2.02 log10 K

Question: For `Cc1cccc(C)c1`, which log K of transfer, water to solvent [1] is on record?
Answer: 3.2 log10 K

Question: What about the log K of transfer, water to solvent ([2]; 1,2-Dichloroethane, 25 C) of the same molecule?
Answer: 3.77 log10 K

Question: What about the log K of transfer, water to solvent ([2]; CCl4, 25 C) of the same molecule?
Answer: 3.57 log10 K

Question: What about the log K of transfer, water to solvent ([2]; Chloroform, 25 C) of the same molecule?
Answer: 3.68 log10 K

Question: And the log K of transfer, water to solvent ([2]; Cyclohexane, 25 C)?
Answer: 3.34 log10 K

Question: What about the log K of transfer, water to solvent ([2]; Hexadecane, 25 C) of the same molecule?
Answer: 3.23 log10 K

Question: And the log K of transfer, water to solvent ([2]; Octan-1-ol(dry), 25 C)?
Answer: 3.18 log10 K

Question: And the log K of transfer, gas to solvent ([3]; 1,2-Dichloroethane, 25 C)?
Answer: 4.38 log10 K

Question: And the log K of transfer, gas to solvent ([3]; CCl4, 25 C)?
Answer: 4.18 log10 K

Question: What about the log K of transfer, gas to solvent ([3]; Chloroform, 25 C) of the same molecule?
Answer: 4.29 log10 K

Question: What about the log K of transfer, gas to solvent ([3]; Cyclohexane, 25 C) of the same molecule?
Answer: 3.95 log10 K

Question: And the log K of transfer, gas to solvent ([3]; Hexadecane, 25 C)?
Answer: 3.84 log10 K

Question: And the log K of transfer, gas to solvent ([3]; Octan-1-ol, 25 C)?
Answer: 3.79 log10 K

Question: What about the log K of transfer, gas to solvent ([3]; Water, 25 C) of the same molecule?
Answer: 0.61 log10 K
